Laboratory results taken from ChEMBL document CHEMBL1201862, “PubChem BioAssay data set” (2004).
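Interpolation was linear, between the two tested concentrations surrounding the appropriate level; five concentrations were tested over 48 hours in 96-well plates. GI50 is the concentration that inhibits growth by half.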 Active and inactive are the calls of the source. Rule as the data show it: active = GI50 up to about 1.1 µM and inactive = higher.

Experiments:
Assay in all cases: DTP human tumour cell line panel, 48 h
[1] = tested on: MOLT-4
[2] = tested on: 786-0
[3] = tested on: OVCAR-3
[4] = tested on: SK-OV-3
[5] = tested on: HCT-15
[6] = tested on: SK-MEL-2
[7] = tested on: LXFL 529
[8] = tested on: SK-MEL-28
[9] = tested on: SF-539
[10] = tested on: M19-MEL
[11] = tested on: CCRF-CEM
[12] = tested on: ACHN
[13] = tested on: RPMI-8226
[14] = tested on: UO-31
[15] = tested on: KM12
[16] = tested on: TK-10
[17] = tested on: HCT-116
[18] = tested on: A549
[19] = tested on: NCI-H226
[20] = tested on: U-251
[21] = tested on: DLD-1
[22] = tested on: HOP-18
[23] = tested on: OVCAR-4
[24] = tested on: HOP-92
[25] = tested on: DMS-273
[26] = tested on: SN12C
[27] = tested on: UACC-257
[28] = tested on: OVCAR-8
[29] = tested on: NCI-H23
[30] = tested on: M14
[31] = tested on: HCC 2998
[32] = tested on: HL-60
[33] = tested on: NCI-H460
[34] = tested on: SF-268
[35] = tested on: Malme-3M
[36] = tested on: DMS-114
[37] = tested on: EKVX
[38] = tested on: SNB-75
[39] = tested on: SF-295
[40] = tested on: XF498
[41] = tested on: HT-29
[42] = tested on: NCI-H522
[43] = tested on: SNB-78
[44] = tested on: K562
[45] = tested on: OVCAR-5
[46] = tested on: COLO 205

## O=C1C=CC(=O)c2c1ccc1c3ccccc3n(-c3ccccn3)c21
[1]
  GI50: 4.8 µM (inactive)
[2]
  GI50: 15.2 µM (inactive)
[3]
  GI50: 24.7 µM (inactive)
[4]
  GI50: > 100 µM (inactive)
[5]
  GI50: 19.1 µM
[6]
  GI50: 45.4 µM (inactive)
[7]
  GI50: 14.8 µM (inactive)
[8]
  GI50: > 100 µM (inactive)
[9]
  GI50: 32 µM (inactive)
[10]
  GI50: 21 µM (inactive)
[11]
  GI50: 2.5 µM (inactive)
[12]
  GI50: 21.2 µM (inactive)
[13]
  GI50: 25.6 µM (inactive)
[14]
  GI50: 19.1 µM (inactive)
[15]
  GI50: > 100 µM (inactive)
[16]
  GI50: 16.7 µM (inactive)
[17]
  GI50: 13.2 µM (inactive)
[18]
  GI50: > 100 µM (inactive)
[19]
  GI50: 13.2 µM (inactive)
[20]
  GI50: > 100 µM (inactive)
[21]
  GI50: 16.5 µM (inactive)
[22]
  GI50: 14.8 µM (inactive)
[23]
  GI50: 15.5 µM (inactive)
[24]
  GI50: 15.6 µM (inactive)
[25]
  GI50: 39.4 µM (inactive)
[26]
  GI50: 55.1 µM (inactive)
[27]
  GI50: 18.5 µM (inactive)
[28]
  GI50: 24.7 µM (inactive)
[29]
  GI50: 36.6 µM (inactive)
[30]
  GI50: 27.5 µM (inactive)
[31]
  GI50: > 100 µM (inactive)
[32]
  GI50: 3.5 µM (inactive)
[33]
  GI50: > 100 µM (inactive)
[34]
  GI50: 31.7 µM (inactive)
[35]
  GI50: 17.8 µM (inactive)
[36]
  GI50: 20.6 µM (inactive)
[37]
  GI50: 13.8 µM (inactive)
[38]
  GI50: > 100 µM (inactive)
[39]
  GI50: > 100 µM (inactive)
[40]
  GI50: 15.6 µM (inactive)
[41]
  GI50: 28.4 µM (inactive)
[42]
  GI50: 4.15 µM (inactive)
[43]
  GI50: > 100 µM (inactive)
[44]
  GI50: 4.98 µM (inactive)
[45]
  GI50: > 100 µM (inactive)
[46]
  GI50: 14.2 µM (inactive)
